From patent US20230041743A1, “1,8-NAPHTHYRIDIN-2-ONE COMPOUNDS FOR THE TREATMENT OF AUTOIMMUNE DISEASE” (Hoffmann-La Roche Inc., priority 2019, published 2023)

Experiments:
human TLR8 = target: T1, human TLR8 (Homo sapiens, UniProt Q9NR97); assay: HEK293-Blue-hTLR-8 cells assay (SEAP reporter, R848 stimulation); type: cell-based; conditions: HEK293-Blue-hTLR8 cells, R848 ligand, 20 hrs incubation; read-out: HEK/hTLR8 IC50
T1 construct: host or cells: HEK293 (HEK-Blue hTLR8)
T1 sequence (Q9NR97 27-1041): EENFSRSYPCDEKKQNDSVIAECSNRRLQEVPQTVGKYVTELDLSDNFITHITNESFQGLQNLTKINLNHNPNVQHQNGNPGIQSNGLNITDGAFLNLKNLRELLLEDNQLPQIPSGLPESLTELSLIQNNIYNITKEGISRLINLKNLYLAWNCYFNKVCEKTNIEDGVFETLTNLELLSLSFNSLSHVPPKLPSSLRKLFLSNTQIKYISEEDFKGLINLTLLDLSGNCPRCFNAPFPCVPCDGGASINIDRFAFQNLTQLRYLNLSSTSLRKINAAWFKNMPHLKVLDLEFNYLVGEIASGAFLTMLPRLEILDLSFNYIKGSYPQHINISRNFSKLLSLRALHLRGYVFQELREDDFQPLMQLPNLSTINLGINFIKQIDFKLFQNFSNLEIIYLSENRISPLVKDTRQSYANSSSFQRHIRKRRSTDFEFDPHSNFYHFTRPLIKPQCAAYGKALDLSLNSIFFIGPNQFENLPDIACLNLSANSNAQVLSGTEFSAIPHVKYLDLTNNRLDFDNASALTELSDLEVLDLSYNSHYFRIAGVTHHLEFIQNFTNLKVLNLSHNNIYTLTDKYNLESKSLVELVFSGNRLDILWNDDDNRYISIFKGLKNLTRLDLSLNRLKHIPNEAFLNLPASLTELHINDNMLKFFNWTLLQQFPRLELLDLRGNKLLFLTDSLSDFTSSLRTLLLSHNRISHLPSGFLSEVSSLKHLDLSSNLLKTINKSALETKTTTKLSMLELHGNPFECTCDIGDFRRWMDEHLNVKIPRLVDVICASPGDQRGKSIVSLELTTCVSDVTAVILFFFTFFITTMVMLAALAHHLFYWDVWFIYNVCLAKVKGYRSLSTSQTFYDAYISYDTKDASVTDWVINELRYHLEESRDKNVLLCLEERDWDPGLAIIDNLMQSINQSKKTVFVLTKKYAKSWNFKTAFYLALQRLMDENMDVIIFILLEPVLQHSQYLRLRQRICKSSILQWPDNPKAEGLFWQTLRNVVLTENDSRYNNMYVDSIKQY
Description: HEK293-Blue-hTLR-8 Cells Assay:
A stable HEK293-Blue-hTLR-8 cell line was purchased from InvivoGen (Cat. #: hkb-htlr8, San Diego, Calif., USA). These cells were originally designed for studying the stimulation of human TLR8 by monitoring the activation of NF-κB. A SEAP (secreted embryonic alkaline phosphatase) reporter gene was placed under the control of the IFN-β minimal promoter fused to five NF-κB and AP-1-binding sites. The SEAP was induced by activating NF-κB and AP-1 via stimulating HEK-Blue hTLR8 cells with TLR8 ligands. Therefore the reporter expression was declined by TLR8 antagonist under the stimulation of a ligand, such as R848, for incubation of 20 hrs. The cell culture supernatant SEAP reporter activity was determined using QUANTI-Blue™ kit (Cat. #: rep-qb1, Invivogen, San Diego, Ca, USA) at a wavelength of 640 nm, a detection medium that turns purple or blue in the presence of alkaline phosphatase.
HEK293-Blue-hTLR8 cells were incubated at a density of 250,000-450,000 cells/mL in a volume of 170 μL in a 96-well plate in Dulbecco's Modified Eagle's medium (DMEM) containing 4.5 g/L glucose, 50 U/mL penicillin, […], […], 2 mM L-glutamine, 10% (v/v) heat-inactivated fetal bovine serum with addition of 20 μL test compound in a serial dilution in the presence of final DMSO at 1% and 10 μL of 60 uM R848 in above DMEM, perform incubation under 37° C. in a CO2 incubator for 20 hrs. Then 20 μL of the supernatant from each well was incubated with 180 μL Quanti-blue substrate solution at 37° C. for 2 hrs and the absorbance was read at 620-655 nm using a spectrophotometer. The signaling pathway that TLR8 activation leads to downstream NF-κB activation has been widely accepted, and therefore similar reporter assay was modified for evaluating TLR8 antagonist.

[1] = Human microsomal stability assay; type: in vitro ADME; conditions: human liver microsomes, 1 μM test compound, 0.5 mg/mL protein, 37° C.; low <7.0, medium 7.0-16.2, high 16.2-23.2
Description: Human Microsomal Stability Assay
Human liver microsomes (Cat. NO.: 452117, Corning, USA) were preincubated with test compound for 10 minutes at 37° C. in 100 mM potassium phosphate buffer, pH 7.4. The reactions were initiated by adding NADPH regenerating system. The final incubation mixtures contained 1 μM test compound, 0.5 mg/mL liver microsomal protein, 1 mM MgCl2, 1 mM NADP, 1 unit/mL isocitric dehydrogenase and 6 mM isocitric acid in 100 mM potassium phosphate buffer, pH 7.4. After incubation times of 0, 3, 6, 9, 15 and 30 minutes at 37° C., 300 μL of cold ACN (including internal standard) was added to 100 μL incubation mixture to terminate the reaction. Following precipitation and centrifugation, 100 uL supernatant will be taken out and added 300 uL water.
The amount of compound remaining in the samples was determined by LC-MS/MS. Controls of no NADPH regenerating system at zero and 30 minutes were also prepared and analyzed. The results were categorized as: low (<7.0 mL/min/kg), medium (7.0-16.2 mL/min/kg) and high (16.2-23.2 mL/min/kg).

## C[C@@H]1CN(c2cc(=O)n(C)c3ncccc23)C[C@@H]2c3ccc(N4CC(C)(N)C4)cc3CN12 [Example 1, 4-[(4R,10bS)-8-(3-amino-3-methyl-azetidin-1-yl)-4-methyl-3,4,6,10b-tetrahydro-1H-pyrazino[2,1-a]isoindol-2-yl]-1-methyl-1,8-naphthyridin-2-one]
Human TLR8
  IC50: 2.9 nM

## C[C@@H]1CN(c2cc(=O)n(C)c3ncccc23)C[C@@H]2c3ccc(N4CC5(CN(C)C5)C4)cc3CN12 [Example 2, 4-[(4R,10bS)-4-methyl-8-(6-methyl-2,6-diazaspiro[3.3]heptan-2-yl)-3,4,6,10b-tetrahydro-1H-pyrazino[2,1-a]isoindol-2-yl]-1-methyl-1,8-naphthyridin-2-one]
Human TLR8
  IC50: 1.7 nM
[1]
  CL (h): 9.5 mL/min/kg

## C[C@@H]1CN(c2cc(=O)n(C)c3ncccc23)C[C@@H]2c3ccc(N4CC5(CNCCO5)C4)cc3CN12 [Example 3, 4-[(4R,10bS)-4-methyl-8-(5-oxa-2,8-diazaspiro[3.5]nonan-2-yl)-3,4,6,10b-tetrahydro-1H-pyrazino[2,1-a]isoindol-2-yl]-1-methyl-1,8-naphthyridin-2-one]
Human TLR8
  IC50: 2.6 nM

## C[C@@H]1CN(c2cc(=O)n(C)c3ncccc23)C[C@@H]2c3ccc(N4CC[C@@](C)(N)C4)cc3CN12 [Example 4, 4-[(4R,10bS)-8-[(3R)-3-amino-3-methyl-pyrrolidin-1-yl]-4-methyl-3,4,6,10b-tetrahydro-1H-pyrazino[2,1-a]isoindol-2-yl]-1-methyl-1,8-naphthyridin-2-one]
Human TLR8
  IC50: 2.9 nM
[1]
  CL (h): 6.3 mL/min/kg

## CO[C@@H]1CN(c2ccc3c(c2)CN2[C@H](C)CN(c4cc(=O)n(C)c5ncccc45)C[C@H]32)C[C@H]1N [Example 5, 4-[(4R,10bS)-8-[(3R,4R)-3-amino-4-methoxy-pyrrolidin-1-yl]-4-methyl-3,4,6,10b-tetrahydro-1H-pyrazino[2,1-a]isoindol-2-yl]-1-methyl-1,8-naphthyridin-2-one]
Human TLR8
  IC50: 11.5 nM
[1]
  CL (h): 7.8 mL/min/kg

## C[C@@H]1CN(c2cc(=O)n(C)c3ncccc23)C[C@@H]2c3ccc(N4C[C@H]5NCCO[C@@H]5C4)cc3CN12 [Example 6, 4-[(4R,10bS)-8-[(4aR,7aR)-3,4,4a,5,7,7a-hexahydro-2H-pyrrolo[3,4-b][1,4]oxazin-6-yl]-4-methyl-3,4,6,10b-tetrahydro-1H-pyrazino[2,1-a]isoindol-2-yl]-1-methyl-1,8-naphthyridin-2-one]
Human TLR8
  IC50: 4.9 nM

## C[C@@H]1CN(c2cc(=O)n(C)c3ncccc23)C[C@@H]2c3ccc(N4C[C@@H](N)[C@@H](F)C4)cc3CN12 [Example 7, 4-[(4R,10bS)-8-[(3R,4S)-3-amino-4-fluoro-pyrrolidin-1-yl]-4-methyl-3,4,6,10b-tetrahydro-1H-pyrazino[2,1-a]isoindol-2-yl]-1-methyl-1,8-naphthyridin-2-one]
Human TLR8
  IC50: 5.9 nM
[1]
  CL (h): 9.4 mL/min/kg

## CO[C@H]1CN(c2ccc3c(c2)CN2[C@H](C)CN(c4cc(=O)n(C)c5ncccc45)C[C@H]32)CC[C@@H]1N [Example 8, 4-[(4R,10bS)-8-[(3S,4S)-4-amino-3-methoxy-1-piperidyl]-4-methyl-3,4,6,10b-tetrahydro-1H-pyrazino[2,1-a]isoindol-2-yl]-1-methyl-1,8-naphthyridin-2-one]
Human TLR8
  IC50: 7.3 nM

## CO[C@H]1CCN(c2ccc3c(c2)CN2[C@H](C)CN(c4cc(=O)n(C)c5ncccc45)C[C@H]32)C[C@@H]1N [Example 9, 4-[(4R,10bS)-8-[(3S,4S)-3-amino-4-methoxy-1-piperidyl]-4-methyl-3,4,6,10b-tetrahydro-1H-pyrazino[2,1-a]isoindol-2-yl]-1-methyl-1,8-naphthyridin-2-one]
Human TLR8
  IC50: 1.5 nM
[1]
  CL (h): 8.8 mL/min/kg

## COC[C@@H]1CNCCN1c1ccc2c(c1)CN1[C@H](C)CN(c3cc(=O)n(C)c4ncccc34)C[C@H]21 [Example 10, 4-[(4R,10bS)-8-[(2S)-2-(methoxymethyl)piperazin-1-yl]-4-methyl-3,4,6,10b-tetrahydro-1H-pyrazino[2,1-a]isoindol-2-yl]-1-methyl-1,8-naphthyridin-2-one]
Human TLR8
  IC50: 4 nM

## C[C@@H]1CN(c2cc(=O)n(C)c3ncccc23)C[C@@H]2c3ccc(N4CCOC5(CNC5)C4)cc3CN12 [Example 11, 4-[(4R,10bS)-4-methyl-8-(5-oxa-2,8-diazaspiro[3.5]nonan-8-yl)-3,4,6,10b-tetrahydro-1H-pyrazino[2,1-a]isoindol-2-yl]-1-methyl-1,8-naphthyridin-2-one]
Human TLR8
  IC50: 24.1 nM
[1]
  CL (h): 6.9 mL/min/kg

## C[C@@H]1CN(c2ccc3c(c2)CN2[C@H](C)CN(c4cc(=O)n(C)c5ncccc45)C[C@H]32)CCN1 [Example 14, 4-[(4R,10bS)-4-methyl-8-[(3R)-3-methylpiperazin-1-yl]-3,4,6,10b-tetrahydro-1H-pyrazino[2,1-a]isoindol-2-yl]-1-methyl-1,8-naphthyridin-2-one]
Human TLR8
  IC50: 1 nM

## C[C@@H]1CNCCN1c1ccc2c(c1)CN1[C@H](C)CN(c3cc(=O)n(C)c4ncccc34)C[C@H]21 [Example 17, 4-[(4R,10bS)-4-methyl-8-[(2R)-2-methylpiperazin-1-yl]-3,4,6,10b-tetrahydro-1H-pyrazino[2,1-a]isoindol-2-yl]-1-methyl-1,8-naphthyridin-2-one]
Human TLR8
  IC50: < 0.3 nM

## C[C@@H]1CN(c2cc(=O)n(C)c3ncccc23)C[C@@H]2c3ccc(N4CCOC[C@H](N)C4)cc3CN12 [Example 22, 4-[(4R,10bS)-8-[(6R)-6-amino-1,4-oxazepan-4-yl]-4-methyl-3,4,6,10b-tetrahydro-1H-pyrazino[2,1-a]isoindol-2-yl]-1-methyl-1,8-naphthyridin-2-one]
Human TLR8
  IC50: 4.9 nM

## C[C@@H]1CN(c2cc(=O)n(C)c3ncccc23)C[C@@H]2c3ccc([C@H]4CC[C@@H](N5CCOCC5)CC4)cc3CN12 [Example 27B, 4-[(4R,10bS)-4-methyl-8-(cis-4-morpholinocyclohexyl)-3,4,6,10b-tetrahydro-1H-pyrazino[2,1-a]isoindol-2-yl]-1-methyl-1,8-naphthyridin-2-one]
Human TLR8
  IC50: 10 nM

## C[C@@H]1CN(c2cc(=O)n(C)c3ncccc23)C[C@@H]2c3ccc([C@@H]4C[C@H]5COC[C@@H](C4)N5)cc3CN12 [Example 28B, 4-[(4R,10bS)-4-methyl-8-(exo-3-oxa-9-azabicyclo[3.3.1]nonan-7-yl)-3,4,6,10b-tetrahydro-1H-pyrazino[2,1-a]isoindol-2-yl]-1-methyl-1,8-naphthyridin-2-one]
Human TLR8
  IC50: 4.4 nM
